In patent EP0848706B1, “SUBSTITUTED BENZENE-FUSED HETEROCYCLICS AS NEUROKININ ANTAGONISTS” (SCHERING CORPORATION, priority 1995, dated 1996):
Like-named read-outs stand apart in the source and are kept apart here.

Legend:
[1] = molecular target: T1, human NK-2 receptor (Homo sapiens, UniProt P21452); experiment: Neurokinin receptor binding assay, NK-2 ([3H]-Neurokinin A, CHO cell membranes); conditions: for Ki: Ki according to Cheng and Prusoff from competition binding curves, read-out: Ki (NK2); for inhibition at 1 µM: read-out: % Inhibition NK2 (1µM dose)
T1 construct: expressed in transfected cells; host or cells: Chinese Hamster ovary (CHO) cells
T1 sequence (P21452 1-398): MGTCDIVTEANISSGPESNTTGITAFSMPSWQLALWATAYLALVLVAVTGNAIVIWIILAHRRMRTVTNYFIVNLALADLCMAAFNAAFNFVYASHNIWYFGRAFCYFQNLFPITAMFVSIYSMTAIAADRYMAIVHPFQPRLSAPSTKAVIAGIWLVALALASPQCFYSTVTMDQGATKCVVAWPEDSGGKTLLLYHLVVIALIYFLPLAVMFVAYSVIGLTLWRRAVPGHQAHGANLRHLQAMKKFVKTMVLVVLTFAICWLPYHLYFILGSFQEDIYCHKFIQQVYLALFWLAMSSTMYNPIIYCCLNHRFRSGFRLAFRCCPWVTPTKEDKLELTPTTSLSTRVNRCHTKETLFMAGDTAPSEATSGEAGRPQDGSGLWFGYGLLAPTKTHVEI
Experimental: (§1) Chinese Hamster ovary (CHO) cells transfected with the coding regions for the human neurokinin 1 (NK1) of the human neurokinin 2 (NK2) receptors are grown in Dulbecco's minimal essential medium supplemented with 10% fetal calf serum, 0.1 mM non-essential amino acids, 2 mM glutamine, 100units/ml of penicillin and streptomycin, and 0.8 mg of G418/ml at 37°C in a humidified atmosphere containing 5% CO2.
(§2) Cells are detached from T-175 flasks with a sterile solution containing 5mM EDTA in phosphate buffered saline. Cells are harvested by centrifugation and washed in RPMI media at […] for 5 minutes. The pellet is resuspended inTris-HCl (pH7.4) containing 1 uM phsphoramidon and 4 ug/ml of chymostatin at a cell density of 30 x 10^6 cells/ml. The suspension is then homogenized in a Brinkman Polytron (setting 5) for 30-45 seconds. The homogenate is centrifuged at 800 x g for 5 min at 4°C to collect unbroken cells and nuclei. The supernatant is centrifuged in a Sorvall RC5C at 19,000 rpm ([…]) for 30 min at 4°C. The pellet is resuspended, an aliquot is removed for a protein determination (BCA) and washed again. The resulting pellet is stored at -80°C.
(§3) To assay receptor binding, 50 µl of [^3H]-Substance P (9-Sar, 11-Met) (specific activity 41 Ci/mmol) (Dupont-NEN) (0.8 nM for the NK-1 assay) or [^3H]-Neurokinin A (specific activity 114 Ci/ mmole) (Zenca) (1.0 nM for the NK-2 assay) is added to tubes containing buffer (50 mM Tris-HCl (pH 7.4) with 1 mM MnCl2 and 0.2% Bovine Serum Albumin) and either DMSO or test compound. Binding is initiated by the addition of 100µl of membrane (10-20 µg) containing the human NK-1 or NK-2 receptor in a final volume of 200 µl. After 40 minutes at room temperature, the reaction is stopped by rapid filtration onto Whatman GF/C filters which have been presoaked in 0.3% polyethylenimine. Filters are washed 2 times with 3 ml of 50 mM Tris-HCl (pH7.4). Filters are added to 6 mls of Ready-Safe liquid scintillation cocktail and quantified by liquid scintillation spectrometry in a LKB 1219 RackBeta counter. Non-specific binding is determined by the addition of either 1 µM of CP-99994 (NK-1) or 1µM SR-48968 (NK-2) (both synthesized by the chemistry department of Schering-Plough Research Institute). IC50 values are determined from competition binding curves and Ki values are determined according to Cheng and Prusoff using the experimentally determined value of 0.8 nM for the NK-1 receptor and 2.4 nM for the NK-2 receptor.
(§4) % Inhibition is the difference between the percent of maximum specific binding (MSB) and 100%. The percent of MSB is defined by the following equation, wherein "dpm" is disintegrations per minute: % MSB =((dpm of unknown) - (dpm of nonspecific binding))/((dpm of total binding) - (dpm of nonspecific binding))X 100 [formula]

[2] = molecular target: T2, human NK-1 receptor (Homo sapiens, UniProt P25103); experiment: Neurokinin receptor binding assay, NK-1 ([3H]-Substance P, CHO cell membranes); conditions: for Ki: Ki according to Cheng and Prusoff from competition binding curves, read-out: Ki(NK1); for inhibition at 1 µM: read-out: % Inhibition NK1 (1µM dose)
T2 construct: expressed in transfected cells; host or cells: Chinese Hamster ovary (CHO) cells
T2 sequence (P25103 whole entry): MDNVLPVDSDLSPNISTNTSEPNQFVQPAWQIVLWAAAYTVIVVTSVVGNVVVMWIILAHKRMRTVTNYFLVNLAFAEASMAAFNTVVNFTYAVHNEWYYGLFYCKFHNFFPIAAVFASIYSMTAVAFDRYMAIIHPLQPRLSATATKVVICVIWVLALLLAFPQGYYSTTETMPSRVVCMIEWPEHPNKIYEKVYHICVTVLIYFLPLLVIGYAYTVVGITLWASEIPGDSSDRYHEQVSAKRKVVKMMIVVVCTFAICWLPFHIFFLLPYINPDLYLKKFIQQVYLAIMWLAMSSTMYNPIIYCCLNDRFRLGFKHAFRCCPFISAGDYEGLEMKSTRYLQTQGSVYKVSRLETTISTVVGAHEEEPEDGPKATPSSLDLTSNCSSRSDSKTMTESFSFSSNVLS
Experimental: as §1, §2, §3, §4

[3] = molecular target: T3, NK3 (Homo sapiens, UniProt P29371); experiment: NK3 activity, procedure similar to the literature (Molecular Pharmacol., 48 (1995), p. 711-716); assay type: binding
T3 sequence (P29371 1-465): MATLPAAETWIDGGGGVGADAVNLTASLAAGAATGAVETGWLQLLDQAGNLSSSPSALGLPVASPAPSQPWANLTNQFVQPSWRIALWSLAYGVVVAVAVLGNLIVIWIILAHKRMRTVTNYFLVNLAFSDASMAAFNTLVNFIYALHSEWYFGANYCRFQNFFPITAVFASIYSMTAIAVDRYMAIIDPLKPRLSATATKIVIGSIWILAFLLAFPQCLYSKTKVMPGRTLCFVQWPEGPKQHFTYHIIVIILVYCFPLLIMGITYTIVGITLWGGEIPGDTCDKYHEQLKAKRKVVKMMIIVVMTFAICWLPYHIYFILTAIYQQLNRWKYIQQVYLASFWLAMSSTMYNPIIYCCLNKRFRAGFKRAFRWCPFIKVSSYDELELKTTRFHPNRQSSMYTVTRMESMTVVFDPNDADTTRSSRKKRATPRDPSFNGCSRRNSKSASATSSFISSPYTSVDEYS
Experimental: NK3 activity is determined by following a procedure similar to that described in the literature, e.g., Molecular Pharmacol., 48 (1995), p. 711-716.

[4] = 1µM dose, % inhibition = 100% minus percent of maximum specific binding

Compound	Ki [1]	inhibition at 1 µM [1]	Ki [2]	Ki [3]	inhibition at 1 µM [2]	inhibition at 1 µM [1, 4]	inhibition at 1 µM [2, 4]
COc1cc(C(=O)N(C)CC(CCN(C)CCc2c[nH]c3ccc(F)cc23)c2ccc(Cl)c(Cl)c2)cc(OC)c1OC (racemic) [Example 7c]	0.01 µM	100%	0.012 µM				
COc1cc(C(=O)N(C)CC(CCN(C)CCc2c[nH]c3ccccc23)c2ccc(Cl)c(Cl)c2)cc(OC)c1OC (stereo not shown) [Example 2]	0.033 µM	87%	0.025 µM	0.448 µM	81%		
CN(CCc1c[nH]c2ccccc12)CCC(CN(C)C(=O)c1ccc2c(c1)OCO2)c1ccc(Cl)c(Cl)c1 (stereo not shown) [Example 12a]	0.059 µM		0.165 µM			96%	69%
COc1cc(OC)cc(C(=O)N2CCC(CCN(C)CCc3c[nH]c4ccccc34)(c3ccc(Cl)c(Cl)c3)C2)c1 (stereo not shown) [Example 14a]	0.03 µM		0.233 µM				
C=CCN(CCc1c[nH]c2ccccc12)CCC(CN(C)C(=O)c1cc(OC)c(OC)c(OC)c1)c1ccc(Cl)c(Cl)c1 (stereo not shown) [Example 9b]	0.25 µM		0.023 µM				
